Test results: patent publication US20240335462A1, “SULFUR/PHOSPHORUS-CONTAINING ARYL COMPOUND AND APPLICATION THEREOF” (MEDSHINE DISCOVERY INC., priority 2021, published 2024)
Like-named read-outs stand apart in the source and are kept apart here.

Tests used:
[1] = Pharmacokinetic testing in rats; format: in vivo, male SD rats; settings: rat; for AUC(0-t): read-out: Area under the curve AUC0-last; for C0: read-out: Starting concentration C0; for Cmax: read-out: Peak concentration Cmax
Method: The objective was to study the pharmacokinetic behavior of the compound of the present disclosure in rats and evaluate the pharmacokinetic characteristics, using male SD rats aged 7 to 9 weeks as test animals. The drug concentrations in plasma at different time points after a single intravenous injection (IV) and oral administration (P0) of the compound were determined using LC/MS/MS.
The pharmacokinetic characteristics of the compound in rodents following intravenous injection and oral administration were tested using a standard protocol. Test animals were fasted for 10 to 14 hours before administration and allowed to feed 4 hours post-administration. The compound was prepared into a clear solution with the appropriate solvent for both IV (intravenous injection) and PO (oral gavage) administration. The solvent was […]+10% solutol+80% (10% HP-β-CD aqueous solution). Whole blood samples were collected within 24 hours, centrifuged at 6000 g for 3 minutes, and the supernatant was separated to obtain plasma samples. Protein precipitation was performed by adding four times the volume of acetonitrile solution containing internal standard to the plasma samples. After centrifugation, the supernatant was added with an equal volume of water and then centrifuged before being subjected to LC-MS/MS analysis for quantifying plasma drug concentration. Pharmacokinetic parameters such as peak concentration, time to peak concentration, clearance, half-life, area under the drug-time curve, and bioavailability were calculated.

[2] = tested on: acute colitis induced by CD40 antibody; assay: Mouse model of acute colitis induced by CD40 antibody; format: in vivo, CB-17 SCID mice; parameters: DAI score: scale not given here; settings: mean
Method: The purpose of this experiment was to evaluate the alleviating effect of the compound on colitis in a mouse model induced by CD40 antibody.
CB-17 SCID mice were randomly divided into groups. Each group consisted of 6 mice, which received an intraperitoneal injection (IP) of CD40 antibody (80 μg per mouse) on Day 0. The positive control drug IL-12 P40 antibody and the test compound were administered from Day-1 to Day 4, with Day 5 being the endpoint of the experiment. The positive control drug IL-12 P40 antibody was administered via intraperitoneal injection (IP) once every three days; the test compound was administered by gavage (PO) twice a day (BID).
The compounds were all prepared into a clear solution with 10% DMSO+10% solutol+80% (10% HP-3-CD) as a solvent for PO (oral gavage) administration. Administration volume parameters: 10 mL/kg based on the body weight of the mice.
IL-12 P40 antibody and the test compound were administered from Day-1 to Day 4. On Day 0, 30 minutes after administration, 200 μL of CD40 antibody (4 mg/kg) was intraperitoneally injected, while mice in the blank control group were intraperitoneally injected with 200 μL of DPBS. Body weight was recorded and feces were scored during the experiment.
Fecal scoring involved placing each mouse individually in a specially designed cage for about 10 minutes for scoring. The fecal scoring criteria were as per Table 27.
If blood is observed in the feces or around the anus, occult blood testing is not conducted. For the remaining mice without visible bloody stools, feces are collected for occult blood testing. Occult blood scoring is based on the assumption that the daily test results for the mice in the Normal group are 0. Each day, the fecal samples of four mice from the blank control group are observed for the time taken to develop color on the occult blood test strips. The shortest time required for color development in the feces of these four mice is set as the daily threshold. If the feces develop color before this time point and the color intensifies within 1 to 2 minutes, a score of 2 is assigned.
The body weight and Disease Activity Index (DAI) scores of the animals were recorded daily to assess the disease progression in each group and the effect of the test compound on the disease. The daily Disease Activity Index (DAI) score consists of three parts, with specific criteria referenced in Table 27.

With `CNC(=O)c1cnc(NC(=O)C2CC2)cc1Nc1cccc(-c2ccc(S(=O)(=O)C(C)C)cn2)c1OC` [WX-020] the Vd ([1]; male, SD, plasma, IV 3 mg/kg, read-out: Apparent volume of distribution Vd) was 0.9 L/kg, the AUC(0-t) ([1]; male, SD, plasma, IV 3 mg/kg) was 2.61 µM·h and the half-life ([1]; male, SD, plasma, IV 3 mg/kg, read-out: Half-life T1/2 (converted)) was 54 min. For the same molecule, the C0 ([1]; male, SD, plasma, IV 3 mg/kg) was 3.03 µM, the AUC(0-t) ([1]; male, SD, plasma, PO 10 mg/kg) was 9.76 µM·h and the bioavailability ([1]; male, SD, plasma, PO 10 mg/kg, read-out: Bioavailability F%) was 39%. For the same molecule, the Cmax ([1]; male, SD, plasma, PO 10 mg/kg) was 3.38 µM, the Tmax ([1]; male, SD, plasma, PO 10 mg/kg, read-out: Time to peak concentration Tmax) was 48 min and the “Apparent clearance Cl” value ([1]; IV 3 mg/kg) was 13.1 mL/kg/min.
For `CNC(=O)c1cnc(NC(=O)C2CC2)cc1Nc1cccc(-c2ccc(S(=O)(=O)C(C)C)cn2)c1OC.O=S(=O)(O)O` [Sulfate of WX-020], the DAI score ([2]; 50 mg/kg PO BID, Day 0) was 0.33, the “Weight change rate (%)” value ([2]; 50 mg/kg PO BID, Day 0) was 100.48% and the DAI score ([2]; 50 mg/kg PO BID, Day 1) was 1.17. The “Weight change rate (%)” value ([2]; 50 mg/kg PO BID, Day 1) was 98.37%, the DAI score ([2]; 50 mg/kg PO BID, Day 2) was 2.67 and the “Weight change rate (%)” value ([2]; 50 mg/kg PO BID, Day 2) was 95.22%. The DAI score ([2]; 50 mg/kg PO BID, Day 3) was 0.83, the “Weight change rate (%)” value ([2]; 50 mg/kg PO BID, Day 3) was 100.73% and the DAI score ([2]; 50 mg/kg PO BID, Day 4) was 0.33. The “Weight change rate (%)” value ([2]; 50 mg/kg PO BID, Day 4) was 100.81%, the DAI score ([2]; 50 mg/kg PO BID, Day 5) was 0.50 and the “Weight change rate (%)” value ([2]; 50 mg/kg PO BID, Day 5) was 100.44%. For the same molecule, the DAI score ([2]; 50 mg/kg PO BID, Day -1) was 0.00, the “Weight change rate (%)” value ([2]; 50 mg/kg PO BID, Day -1) was 100.00% and the DAI score ([2]; 100 mg/kg PO BID, Day 0) was 0.33. The “Weight change rate (%)” value ([2]; 100 mg/kg PO BID, Day 0) was 100.78%, the DAI score ([2]; 100 mg/kg PO BID, Day 1) was 1.33 and the “Weight change rate (%)” value ([2]; 100 mg/kg PO BID, Day 1) was 99.88%. The DAI score ([2]; 100 mg/kg PO BID, Day 2) was 1.67, the “Weight change rate (%)” value ([2]; 100 mg/kg PO BID, Day 2) was 97.14% and the DAI score ([2]; 100 mg/kg PO BID, Day 3) was 0.50. For the same molecule, the “Weight change rate (%)” value ([2]; 100 mg/kg PO BID, Day 3) was 99.65%, the DAI score ([2]; 100 mg/kg PO BID, Day 4) was 0.33 and the “Weight change rate (%)” value ([2]; 100 mg/kg PO BID, Day 4) was 101.16%. The DAI score ([2]; 100 mg/kg PO BID, Day 5) was 0.33, the “Weight change rate (%)” value ([2]; 100 mg/kg PO BID, Day 5) was 100.90% and the DAI score ([2]; 100 mg/kg PO BID, Day -1) was 0.00. The “Weight change rate (%)” value ([2]; 100 mg/kg PO BID, Day -1) was 100.00%.
With `CNC(=O)c1nnc(NC(=O)C2CC2)cc1Nc1cccc(-c2ncc(S(=N)(=O)C(C)C)cn2)c1OC.Cl` (single isomer, unassigned) [Hydrochloride of WX-011A] the DAI score ([2]; 30 mg/kg PO BID, Day 0) was 0.17, the “Weight change rate (%)” value ([2]; 30 mg/kg PO BID, Day 0) was 100.60% and the DAI score ([2]; 30 mg/kg PO BID, Day 1) was 1.00. For the same molecule, the “Weight change rate (%)” value ([2]; 30 mg/kg PO BID, Day 1) was 100.01%, the DAI score ([2]; 30 mg/kg PO BID, Day 2) was 2.17 and the “Weight change rate (%)” value ([2]; 30 mg/kg PO BID, Day 2) was 95.93%. The DAI score ([2]; 30 mg/kg PO BID, Day 3) was 0.83, the “Weight change rate (%)” value ([2]; 30 mg/kg PO BID, Day 3) was 98.85% and the DAI score ([2]; 30 mg/kg PO BID, Day 4) was 0.50. The “Weight change rate (%)” value ([2]; 30 mg/kg PO BID, Day 4) was 99.69%, the DAI score ([2]; 30 mg/kg PO BID, Day 5) was 1.00 and the “Weight change rate (%)” value ([2]; 30 mg/kg PO BID, Day 5) was 97.07%. The DAI score ([2]; 30 mg/kg PO BID, Day -1) was 0.00, the “Weight change rate (%)” value ([2]; 30 mg/kg PO BID, Day -1) was 100.00% and the DAI score ([2]; 50 mg/kg PO BID, Day 0) was 0.33. The “Weight change rate (%)” value ([2]; 50 mg/kg PO BID, Day 0) was 100.63%, the DAI score ([2]; 50 mg/kg PO BID, Day 1) was 1.00 and the “Weight change rate (%)” value ([2]; 50 mg/kg PO BID, Day 1) was 99.54%. The DAI score ([2]; 50 mg/kg PO BID, Day 2) was 1.83, the “Weight change rate (%)” value ([2]; 50 mg/kg PO BID, Day 2) was 97.69% and the DAI score ([2]; 50 mg/kg PO BID, Day 3) was 0.67. For the same molecule, the “Weight change rate (%)” value ([2]; 50 mg/kg PO BID, Day 3) was 100.43%, the DAI score ([2]; 50 mg/kg PO BID, Day 4) was 0.50 and the “Weight change rate (%)” value ([2]; 50 mg/kg PO BID, Day 4) was 100.96%. For the same molecule, the DAI score ([2]; 50 mg/kg PO BID, Day 5) was 1.17, the “Weight change rate (%)” value ([2]; 50 mg/kg PO BID, Day 5) was 99.34% and the DAI score ([2]; 50 mg/kg PO BID, Day -1) was 0.00. For the same molecule, the “Weight change rate (%)” value ([2]; 50 mg/kg PO BID, Day -1) was 100.00%, the “Apparent clearance Cl” value ([1]; IV 1 mg/kg) was 16.8 mL/kg/min and the “Apparent volume of distribution Vd” value ([1]; IV 1 mg/kg) was 0.5 L/kg. The “Area under the curve AUC0-last” value ([1]; IV 1 mg/kg) was 2.075 µM·h, the “Half-life T1/2” value ([1]; IV 1 mg/kg) was 36 min and the C0 ([1]; IV 1 mg/kg) was 4.54 µM. The “Area under the curve AUC0-last” value ([1]; PO 10 mg/kg) was 8.202 µM·h, the “Bioavailability F %” value ([1]; PO 10 mg/kg) was 41% and the “Time to peak concentration Tmax” value ([1]; PO 10 mg/kg) was 30 min. For the same molecule, the Cmax ([1]; PO 10 mg/kg) was 4.39 µM.
